Results from patent US20250127778A1, “CANCER IMMUNOTHERAPY COMPOSITION CONTAINING INTERACTION INHIBITOR OF STING AND TRIM29 AS ACTIVE INGREDIENT” (SPARK BIOPHARMA, INC, priority 2021, published 2025).

Legend:
[1] = test system: TRIM29-mediated Lys48 polymerized multi-ubiquitination of STING; experiment: ELISA detection of STING Lys48 polymerized multi-ubiquitination in HEK293T cells; type: cell-based, human; settings: with MG132, three hours, FIG. 8
Description: It was confirmed whether the oxopiperazine derivatives of Formulas 1 to 6 increased the intracellular amount by preventing the degradation of STING through TRIM29-mediated Lys48 polymerized multi-ubiquitination (K48 linkage-specific polyubiquitination).
Specifically, HEK293T cells were seeded in a transparent 6-well plate and cultured for one day. […] At this time, only the effect of the compound was quantitatively detected in a manner of using an analysis value of the sample that was not treated with MG132, a proteasome inhibitor that prevents the removal of ubiquitinated proteins, as a control group and subtracting the analysis value from an analysis value of the sample that was treated with MG132. […] The protein concentration of the supernatant was measured by using Bradford assay reagent. […] To confirm the quantitative concentration, a 5× SDS-PAGE loading buffer (Biosesang) was added at the ratio of the manufacturer to a portion of the sample, and then the resultant was treated at 95° C. for five minutes and analyzed by using the western blotting method described above. […]

STING = target: T1, STING (Mus musculus, UniProt Q3TBT3); experiment: CETSA and ITDRF in Raw264.7 cells, STING; type: binding; design: endogenous in cells; host or cells: Raw264.7
T1 sequence (Q3TBT3 1-378): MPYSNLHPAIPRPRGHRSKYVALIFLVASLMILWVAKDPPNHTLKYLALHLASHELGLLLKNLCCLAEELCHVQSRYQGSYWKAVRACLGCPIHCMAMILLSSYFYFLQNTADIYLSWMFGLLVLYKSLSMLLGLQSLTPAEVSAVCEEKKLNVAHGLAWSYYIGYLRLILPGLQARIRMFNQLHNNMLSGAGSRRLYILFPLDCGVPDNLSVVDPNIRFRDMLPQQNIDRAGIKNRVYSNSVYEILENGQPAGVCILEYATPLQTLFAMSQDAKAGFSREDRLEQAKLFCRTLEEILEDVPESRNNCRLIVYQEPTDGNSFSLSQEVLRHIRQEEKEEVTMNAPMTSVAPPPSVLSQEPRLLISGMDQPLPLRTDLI
Excerpt: It was verified whether the oxopiperazine derivative of the present invention was bound to STING among STING and TRIM29 to inhibit interaction thereof, based on the compound of Formula 1, by the cellular thermal shift assay (CETSA) and the isothermal dose response fingerprint (ITDRF) which were major technologies for verifying the interaction between small molecule compounds and target proteins. (D. M. Molinaetal., Science 2013, 341, 84-87.)
To verify the target of the compound of Formula 1 using the CETSA technique, the human A431 cell lines and mouse Raw264.7 cell lines were seeded on a 100-mm or 150-mm culture dish and cultured for one day. […] Afterwards, centrifugation was performed at 20000 g for 20 minutes at 4° C., the supernatant was transferred to a new container, and each concentration was measured by using the Micro BCA™ protein assay kit (ThermoFisher) according to the protocol of the manufacturer. The concentration of each sample was equally adjusted by using the RIPA lysis buffer, the 5× SDS-PAGE loading buffer (Biosesang) was added according to the ratio of the manufacturer, and the resultant was treated at 95° C. for 5 minutes and analyzed by using the Western blotting method described above.

**Q.** Which results are given for COc1ccc(CC2=CN(c3ccc(C(=O)NC[C@H]4CCCO4)cc3[N+](=O)[O-])[C@H](C(C)C)C(=O)N2Cc2ccc(O)cc2)cc1 [Formula 1, 4-((R)-4-(4-hydroxybenzyl)-2-isopropyl-5-(4-methoxybenzyl)-3-oxo-3,4-dihydropyrazin-1 (2H)-yl)-3-nitro-N-(((R)-tetrahydrofuran-2-yl)methyl)benzamide]?
**A.** TRIM29-mediated lysine 48 polymerized multi-ubiquitination of STING [1]: inhibited; CETSA thermal stability of STING (STING; FIG. 13): induced thermal destabilization by selective binding only to STING; ITDRF thermal stability of STING (STING; FIG. 14): reduced the thermal stability of STING at high concentrations in a concentration-dependent manner
